Data: ChEMBL document CHEMBL3132769, “Fragment growing to retain or alter the selectivity of anchored kinase hinge-binding fragments” (Medchemcomm, 2014)

Key:
[1] = target: Serine/threonine-protein kinase PAK 2 (Homo sapiens) (UniProt Q13177); assay: Inhibition of human truncated PAK2 expressed in Escherichia coli cell assessed as substrate phosphorylation using fluorescence-labelled peptides as substrate at 420 uM after 90 mins by microfluidic peptide phosphorylation assay
[2] = target: Rho-associated protein kinase 2 (Homo sapiens) (UniProt O75116); assay: Inhibition of human ROCK2 catalytic domain expressed in baculovirus assessed as substrate phosphorylation using fluorescence-labelled peptides as substrate at 420 uM after 90 mins by microfluidic peptide phosphorylation assay
Chain of Rho-associated protein kinase 2 (Homo sapiens) (O75116 whole entry, looked up, the tested form may be a part): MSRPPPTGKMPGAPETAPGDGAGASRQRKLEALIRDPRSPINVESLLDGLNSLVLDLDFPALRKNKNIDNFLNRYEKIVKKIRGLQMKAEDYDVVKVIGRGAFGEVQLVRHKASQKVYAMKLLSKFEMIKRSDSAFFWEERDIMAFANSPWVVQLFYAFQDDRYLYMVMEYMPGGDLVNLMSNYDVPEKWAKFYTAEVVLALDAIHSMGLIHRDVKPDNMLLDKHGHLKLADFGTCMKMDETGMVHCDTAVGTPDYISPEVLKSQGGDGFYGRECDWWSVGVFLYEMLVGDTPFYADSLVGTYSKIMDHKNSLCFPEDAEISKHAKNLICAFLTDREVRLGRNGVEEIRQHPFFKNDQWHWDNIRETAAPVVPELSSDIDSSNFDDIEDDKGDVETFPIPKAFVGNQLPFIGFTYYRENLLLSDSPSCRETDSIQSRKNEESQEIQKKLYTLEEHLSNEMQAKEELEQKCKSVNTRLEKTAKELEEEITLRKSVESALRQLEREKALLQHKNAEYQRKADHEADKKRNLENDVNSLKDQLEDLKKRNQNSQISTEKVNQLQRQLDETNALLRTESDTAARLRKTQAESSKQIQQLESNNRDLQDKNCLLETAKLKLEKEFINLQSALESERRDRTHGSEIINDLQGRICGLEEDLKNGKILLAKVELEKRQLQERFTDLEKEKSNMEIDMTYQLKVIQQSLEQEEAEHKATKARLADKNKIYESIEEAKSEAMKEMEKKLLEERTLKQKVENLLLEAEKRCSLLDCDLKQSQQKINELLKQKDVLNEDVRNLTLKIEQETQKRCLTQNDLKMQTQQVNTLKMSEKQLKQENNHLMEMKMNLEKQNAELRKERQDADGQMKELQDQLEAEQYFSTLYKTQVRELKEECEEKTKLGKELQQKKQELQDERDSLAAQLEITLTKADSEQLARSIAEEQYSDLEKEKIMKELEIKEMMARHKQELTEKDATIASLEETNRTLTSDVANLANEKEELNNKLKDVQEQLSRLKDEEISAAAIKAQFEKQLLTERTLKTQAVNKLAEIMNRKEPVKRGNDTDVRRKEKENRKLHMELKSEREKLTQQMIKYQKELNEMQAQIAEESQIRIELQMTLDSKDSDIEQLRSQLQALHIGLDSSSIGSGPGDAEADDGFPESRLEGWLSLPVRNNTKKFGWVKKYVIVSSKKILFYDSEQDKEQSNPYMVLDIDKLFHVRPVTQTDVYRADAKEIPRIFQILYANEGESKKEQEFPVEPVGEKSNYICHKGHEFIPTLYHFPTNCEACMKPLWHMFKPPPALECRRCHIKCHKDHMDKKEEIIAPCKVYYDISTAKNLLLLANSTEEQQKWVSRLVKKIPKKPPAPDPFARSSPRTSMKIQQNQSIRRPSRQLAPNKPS

Homo sapiens = organism: Homo sapiens; assay: Inhibition of human full length PKA expressed in baculovirus assessed as substrate phosphorylation using fluorescence-labelled peptides as substrate at 420 uM after 90 mins by microfluidic peptide phosphorylation assay
[3] = target: T1, Serine/threonine-protein kinase D3 (Homo sapiens) (UniProt O94806); assay: Inhibition of human full length PKD3 expressed in baculovirus assessed as substrate phosphorylation using fluorescence-labelled peptides as substrate at 420 uM after 90 mins by microfluidic peptide phosphorylation assay
T1 sequence (whole entry): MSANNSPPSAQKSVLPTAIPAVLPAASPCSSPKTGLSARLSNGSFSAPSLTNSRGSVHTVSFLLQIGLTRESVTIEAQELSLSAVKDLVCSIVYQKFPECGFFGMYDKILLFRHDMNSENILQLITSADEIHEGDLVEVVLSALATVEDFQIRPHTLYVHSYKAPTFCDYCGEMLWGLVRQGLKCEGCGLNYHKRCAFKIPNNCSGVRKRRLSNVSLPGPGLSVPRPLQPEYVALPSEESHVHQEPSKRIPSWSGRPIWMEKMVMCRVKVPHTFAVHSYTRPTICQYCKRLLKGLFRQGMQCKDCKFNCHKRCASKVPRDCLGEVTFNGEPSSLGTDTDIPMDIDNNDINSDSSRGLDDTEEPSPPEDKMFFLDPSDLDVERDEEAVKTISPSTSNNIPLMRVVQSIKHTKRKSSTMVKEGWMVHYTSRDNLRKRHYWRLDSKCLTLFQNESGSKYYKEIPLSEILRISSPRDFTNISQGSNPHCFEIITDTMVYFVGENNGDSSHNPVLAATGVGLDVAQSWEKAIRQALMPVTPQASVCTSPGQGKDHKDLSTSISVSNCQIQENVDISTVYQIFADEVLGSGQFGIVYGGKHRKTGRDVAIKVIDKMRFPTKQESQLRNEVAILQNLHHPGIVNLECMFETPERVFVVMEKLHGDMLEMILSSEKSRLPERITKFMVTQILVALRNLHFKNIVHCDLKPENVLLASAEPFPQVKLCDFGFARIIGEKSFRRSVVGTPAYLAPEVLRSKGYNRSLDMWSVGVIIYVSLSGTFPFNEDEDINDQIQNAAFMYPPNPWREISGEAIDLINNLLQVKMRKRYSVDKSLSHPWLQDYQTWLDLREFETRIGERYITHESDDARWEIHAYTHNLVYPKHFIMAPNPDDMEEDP

[4] = target: T2, Inhibitor of nuclear factor kappa-B kinase subunit beta (Homo sapiens) (UniProt O14920); assay: Inhibition of human full length IKK beta expressed in baculovirus assessed as substrate phosphorylation using fluorescence-labelled peptides as substrate at […] after 90 mins by microfluidic peptide phosphorylation assay
T2 sequence (whole entry): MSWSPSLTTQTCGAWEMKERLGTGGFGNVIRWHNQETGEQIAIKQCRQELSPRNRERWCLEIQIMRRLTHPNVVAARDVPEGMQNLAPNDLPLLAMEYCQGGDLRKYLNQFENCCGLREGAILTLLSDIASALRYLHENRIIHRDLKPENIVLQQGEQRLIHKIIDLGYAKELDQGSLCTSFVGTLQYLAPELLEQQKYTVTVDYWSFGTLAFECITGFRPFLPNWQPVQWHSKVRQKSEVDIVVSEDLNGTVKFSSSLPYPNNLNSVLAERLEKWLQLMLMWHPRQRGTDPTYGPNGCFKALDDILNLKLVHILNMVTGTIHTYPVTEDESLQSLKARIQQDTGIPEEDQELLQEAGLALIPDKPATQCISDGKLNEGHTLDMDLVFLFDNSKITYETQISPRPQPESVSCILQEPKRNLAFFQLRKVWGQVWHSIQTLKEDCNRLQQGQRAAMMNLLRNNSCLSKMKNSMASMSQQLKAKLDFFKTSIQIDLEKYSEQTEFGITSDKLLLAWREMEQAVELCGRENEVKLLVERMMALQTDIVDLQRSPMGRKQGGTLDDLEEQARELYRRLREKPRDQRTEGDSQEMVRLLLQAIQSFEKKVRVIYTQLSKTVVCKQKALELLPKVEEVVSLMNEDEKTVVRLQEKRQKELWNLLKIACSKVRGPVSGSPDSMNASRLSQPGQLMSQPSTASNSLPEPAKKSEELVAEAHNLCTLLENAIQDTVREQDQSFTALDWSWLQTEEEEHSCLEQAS

[5] = target: T3, Serine/threonine-protein kinase D1 (Homo sapiens) (UniProt Q15139); assay: Inhibition of human full length PKD1 expressed in baculovirus assessed as substrate phosphorylation using fluorescence-labelled peptides as substrate at 8 uM after 90 mins by microfluidic peptide phosphorylation assay
T3 sequence (whole entry): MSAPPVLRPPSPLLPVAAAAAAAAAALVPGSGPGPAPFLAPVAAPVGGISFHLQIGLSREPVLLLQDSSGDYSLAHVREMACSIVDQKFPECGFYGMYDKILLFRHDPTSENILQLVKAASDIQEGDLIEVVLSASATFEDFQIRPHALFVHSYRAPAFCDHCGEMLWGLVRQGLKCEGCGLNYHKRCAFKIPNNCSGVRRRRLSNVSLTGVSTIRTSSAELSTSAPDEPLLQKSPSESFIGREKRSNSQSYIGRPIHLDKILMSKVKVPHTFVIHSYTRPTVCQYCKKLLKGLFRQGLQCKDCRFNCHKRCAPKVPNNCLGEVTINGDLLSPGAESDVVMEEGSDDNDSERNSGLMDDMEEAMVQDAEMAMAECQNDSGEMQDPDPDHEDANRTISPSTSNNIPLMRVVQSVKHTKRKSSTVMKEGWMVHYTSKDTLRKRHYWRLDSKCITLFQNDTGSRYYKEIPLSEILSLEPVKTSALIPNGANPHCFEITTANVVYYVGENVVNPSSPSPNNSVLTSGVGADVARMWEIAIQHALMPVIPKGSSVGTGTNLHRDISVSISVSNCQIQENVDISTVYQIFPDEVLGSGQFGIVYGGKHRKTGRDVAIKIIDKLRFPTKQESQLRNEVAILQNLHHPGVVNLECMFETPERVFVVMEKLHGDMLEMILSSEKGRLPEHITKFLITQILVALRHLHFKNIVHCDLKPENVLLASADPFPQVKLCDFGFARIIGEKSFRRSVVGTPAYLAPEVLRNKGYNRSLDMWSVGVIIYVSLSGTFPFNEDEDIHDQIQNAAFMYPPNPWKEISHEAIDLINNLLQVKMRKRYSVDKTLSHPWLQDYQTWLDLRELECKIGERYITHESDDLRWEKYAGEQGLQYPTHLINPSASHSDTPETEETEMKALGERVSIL

Chain of Serine/threonine-protein kinase PAK 2 (Homo sapiens) (Q13177 whole entry, the tested form may be a part): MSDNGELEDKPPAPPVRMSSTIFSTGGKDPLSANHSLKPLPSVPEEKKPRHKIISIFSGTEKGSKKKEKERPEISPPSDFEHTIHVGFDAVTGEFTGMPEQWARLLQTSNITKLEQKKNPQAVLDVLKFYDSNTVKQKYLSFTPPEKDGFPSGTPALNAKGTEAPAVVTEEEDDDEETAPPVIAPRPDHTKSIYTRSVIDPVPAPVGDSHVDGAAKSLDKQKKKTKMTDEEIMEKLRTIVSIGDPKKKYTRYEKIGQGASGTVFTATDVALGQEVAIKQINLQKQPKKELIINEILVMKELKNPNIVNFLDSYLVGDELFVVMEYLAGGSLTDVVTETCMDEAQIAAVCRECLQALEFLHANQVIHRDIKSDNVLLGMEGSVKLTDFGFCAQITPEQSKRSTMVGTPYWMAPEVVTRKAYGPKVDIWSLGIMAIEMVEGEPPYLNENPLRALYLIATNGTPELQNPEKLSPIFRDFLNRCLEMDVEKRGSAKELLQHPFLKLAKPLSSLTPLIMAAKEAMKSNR

SMILES: c1nc(N2CCOCC2)c2nc[nH]c2n1
- inhibition [1]: 67.5%
- inhibition [2]: 101%
- inhibition (Homo sapiens): 92.5%
- inhibition [3]: 85%

SMILES: COC(=O)c1cnc(Nc2cnc(C#N)cn2)cc1NCC1CCNCC1
- inhibition [4]: 2%

SMILES: NCC1CCN(c2ncnc3[nH]ccc23)CC1
- inhibition [5]: 75.5%
